pIC50: −log10 of the molar value.
How the values were obtained:
[1] = target: JAK1 (recombinant purified GST-tagged catalytic domain) (Homo sapiens (Human), UniProt P23458);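 further: biochemical assay with HTRF read-out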
[2] = target: JAK2 (recombinant purified GST-tagged catalytic domain) (Homo sapiens (Human), UniProt O60674);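 further: biochemical JAK kinase assay with HTRF detection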
JAK2 (recombinant purified GST-tagged catalytic domain), sequence (O60674 849-1124): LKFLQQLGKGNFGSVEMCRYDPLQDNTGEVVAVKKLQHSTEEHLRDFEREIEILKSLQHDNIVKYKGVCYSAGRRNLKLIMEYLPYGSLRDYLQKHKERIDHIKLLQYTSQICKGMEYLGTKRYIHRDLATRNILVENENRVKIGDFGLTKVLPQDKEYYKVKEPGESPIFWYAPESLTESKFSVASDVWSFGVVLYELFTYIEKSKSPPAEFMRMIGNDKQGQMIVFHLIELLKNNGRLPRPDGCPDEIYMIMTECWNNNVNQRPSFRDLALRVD

JAK1 (recombinant purified GST-tagged catalytic domain), sequence (P23458 875-1153): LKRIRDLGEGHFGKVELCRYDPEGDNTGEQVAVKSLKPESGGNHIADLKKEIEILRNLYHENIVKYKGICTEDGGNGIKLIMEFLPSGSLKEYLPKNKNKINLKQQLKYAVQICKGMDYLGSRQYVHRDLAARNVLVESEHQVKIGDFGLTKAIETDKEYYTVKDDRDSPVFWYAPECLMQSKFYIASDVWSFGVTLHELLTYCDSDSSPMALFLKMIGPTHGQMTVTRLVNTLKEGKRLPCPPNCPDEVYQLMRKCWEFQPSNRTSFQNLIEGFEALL

CC1(C)CC[C@@H](C#N)[C@@H](n2cc(C(N)=O)c(Nc3ccccc3)n2)C1 (mixture of isomers) [Example 11-2, 1-{[(1S,2R) and (1R,2S)]-2-Cyano-5,5-dimethylcyclohexyl}-3-(phenylamino)-1H-pyrazole-4-carboxamide]
pIC50 [1]: 7.96
pIC50 [2]: 7.30

N#C[C@@H]1CCCC(F)[C@@H]1n1cc(C(N)=O)c(Nc2ccccc2)n1 (stereo partly shown) [Example 23-2]
pIC50 [1]: 7.17
pIC50 [2]: 6.67

COCCN[C@H]1CCC(n2cc(C(N)=O)c(Nc3ccc(S(=O)(=O)C(F)(F)F)cc3)n2)[C@@H](C#N)C1 (stereo partly drawn) [Example 27-16, 1-{(1S,2S,4S and1R,2R,4R)-2-cyano-4-[(2-methoxyethyl)amino]cyclohexyl}-3-({4-[(trifluoromethyl)sulfonyl]phenyl)amino)-1H-pyrazole-4-carboxamide]
pIC50 [1]: 9.00
pIC50 [2]: 7.46

N#C[C@H]1CC[C@H](NCc2ccccc2)C[C@@H]1n1cc(C(N)=O)c(Nc2ccc(F)cc2)n1 (mixture of isomers) [Example 6-4, 1-{[(1S,2S,5S) and (1R,2R,5R)]-5-(benzylamino)-2-cyanocyclohexyl}-3-[(4-fluorophenyl)amino]-1H-pyrazole-4-carboxamide]
pIC50 [1]: 8.40
pIC50 [2]: 7.26

CC1(C)CC[C@H](C#N)[C@@H](n2cc(C(N)=O)c(Nc3ccccc3)n2)C1 (mixture of isomers) [Example 11-1, 1-{[(1S,2S) and (1R,2R)]-2-Cyano-5,5-dimethylcyclohexyl}-3-(phenylamino)-1H-pyrazole-4-carboxamide]
pIC50 [1]: 7.27
pIC50 [2]: 6.75

N#C[C@H]1C[C@@H](N2CCC2)CC[C@@H]1n1cc(C(N)=O)c(Nc2ccc(OC(F)F)nc2)n1 (single isomer, unassigned) [Example 28-3, 1-[(1S,2S,4S or 1R,2R,4R)-4-(azetidin-1-yl)-2-cyanocyclohexyl]-3-{[6-(difluoromethoxy)pyridin-3-yl]amino}-1H-pyrazole-4-carboxamide]
pIC50 [1]: 8.30
pIC50 [2]: 7.06

CC(C)(C)OC(=O)NCC1CC[C@@H](C#N)[C@@H](n2cc(C(N)=O)c(Nc3ccc(F)cc3)n2)C1 (mixture of isomers) [Example 11-8, tert-butyl {[(3S,4R) and (3R,4S)]-3-{4-carbamoyl-3-[(4-fluorophenyl)amino]-1H-pyrazol-1-yl}-4-cyanocyclohexyl]methyl}carbamate]
pIC50 [1]: 6.80
pIC50 [2]: < 5.82

N#CC1CCC2(CC1n1cc(C(N)=O)c(Nc3ccccc3)n1)OCCO2 (stereo not shown) [Example 2-3, 1-(8-cyano-1,4-dioxaspiro[4.5]dec-7-yl)-3-(phenylamino)-1H-pyrazole-4-carboxamide]
pIC50 [1]: 8.05
pIC50 [2]: 7.33

N#C[C@H]1CCCCC1n1cc(C(N)=O)c(Nc2ccc(S(=O)(=O)C(F)F)c(CO)c2)n1 (mixture of isomers) [Example 17-64, 1-[(1S,2S and 1R,2R )-2-cyanocyclohexyl]-3-({4-[(difluoromethyl)sulfonyl]-3-(hydroxymethyl)phenyl}amino)-1H-pyrazole-4-carboxamide]
pIC50 [1]: 8.70
pIC50 [2]: 7.85

N#C[C@H]1C[C@@H](NCC(F)F)CC[C@@H]1n1cc(C(N)=O)c(Nc2ccc(S(=O)(=O)C(F)F)cc2)n1 (single isomer, unassigned) [Example 28-126, 1-{(1S,2S,4S or 1R,2R,4R )-2-cyano-4-[(2,2-difluoroethyl)amino]cyclohexyl}-3-({4-[(difluoro-methyl)sulfonyl]phenyl}amino)-1H-pyrazole-4-carboxamide]
pIC50 [1]: 9.30
pIC50 [2]: 8.30

N#C[C@H]1CCC[C@@H]1n1cc(C(N)=O)c(Nc2ccccc2)n1 (mixture of isomers) [Example 1-2, 1-{[(1S,2S) and (1R,2R)]-2-cyanocyclopentyl]}-3-(phenylamino)-1H-pyrazole-4-carboxamide]
pIC50 [1]: 8.10
pIC50 [2]: 7.00

CC(C)(C)OC(=O)C1CC[C@@H](C#N)[C@@H](n2cc(C(N)=O)c(Nc3ccccc3)n2)C1 (mixture of isomers) [Example 12-2, (3S,4R and 3R,4S)-tert-butyl 3-(4-carbamoyl-3-(phenylamino)-1H-pyrazol-1-yl)-4-cyanocyclohexanecarboxylate]
pIC50 [1]: 6.59
pIC50 [2]: < 5.82

COC(=O)[C@H]1CCC(n2cc(C(N)=O)c(Nc3ccc(F)cc3)n2)[C@@H](C#N)C1 (stereo partly shown) [Example 7-2]
pIC50 [1]: 7.85
pIC50 [2]: 7.00

N#C[C@H]1CC(F)CC[C@@H]1n1cc(C(N)=O)c(Nc2ccccc2)n1 (mixture of isomers) [Example 22-1, 1-[(1S,2S and 1R,2R)-2-Cyano-4-fluorocyclohexyl]-3-(phenylamino)-1H-pyrazole-4-carboxamide]
pIC50 [1]: 8.40
pIC50 [2]: 7.55

N#C[C@H]1CCCC[C@@H]1n1cc(C(N)=O)c(Nc2cc(Cl)cc(Cl)c2)n1 (single isomer, unassigned) [Example 17-54, 1-[(1S,2S or 1R, 2R)-2-cyanocyclohexyl]-3-[(3,5-dichlorophenyl)amino]-1H-pyrazole-4-carboxamide]
pIC50 [1]: 7.74
pIC50 [2]: 6.92

N#C[C@@H]1CCC[C@@H]1n1cc(C(N)=O)c(Nc2ccccc2)n1 (mixture of isomers) [Example 1-1, 1-{[(1S,2R) and (1R,2S)]-2-cyanocyclopentyl]}-3-(phenylamino)-1H-pyrazole-4-carboxamide]
pIC50 [1]: 7.02
pIC50 [2]: 6.16

C[C@]1(C#N)CC[C@@H](F)C[C@@H]1n1cc(C(N)=O)c(Nc2ccc(F)cc2)n1 (mixture of isomers) [Example 19-1, 1-((1S,2S,5R and 1R,2R,5S)-2-cyano-5-fluoro-2-methylcyclohexyl)-3-((4-fluorophenyl)amino)-1H-pyrazole-4-carboxamide]
pIC50 [1]: 8.52
pIC50 [2]: 8.10

N#C[C@H]1CC[C@@H](NCc2ccccc2)C[C@@H]1n1cc(C(N)=O)c(Nc2ccc(F)cc2)n1 (mixture of isomers) [Example 6-6, 1-{[(1S,2S,5R) and (1R,2R,5S)]-5-(benzylamino)-2-cyanocyclohexyl}-3-[(4-fluorophenyl)amino]-1H-pyrazole-4-carboxamide]
pIC50 [1]: 7.96
pIC50 [2]: 6.77

CC(C)(C)OC(=O)NCC1CC[C@H](C#N)[C@@H](n2cc(C(N)=O)c(Nc3ccc(F)cc3)n2)C1 (single isomer, unassigned) [Example 11-10, tert-butyl {[(1S or R,3S,4S) and (1R or S,3R,4R)]-3-{4-carbamoyl-3-[(4-fluorophenyl)amino]-1H-pyrazol-1-yl}-4-cyanocyclohexyl]methyl}carbamate]
pIC50 [1]: 6.96
pIC50 [2]: 5.89

N#C[C@@H]1CCC2(C[C@@H]1n1cc(C(N)=O)c(Nc3ccccc3)n1)OCCO2 (single isomer, unassigned) [Example 45-4, 1-[(7S,8R or 7R,8S)-8-Cyano-1,4-dioxaspiro[4.5]dec-7-yl]-3-(phenylamino)-1H-pyrazole-4-carboxamide]
pIC50 [1]: 7.89
pIC50 [2]: 7.23

CC(C)(C)OC(=O)C1CC[C@H](C#N)[C@@H](n2cc(C(N)=O)c(Nc3ccccc3)n2)C1 (mixture of isomers) [Example 12-1, (3S,4S and 3R,4R)-tert-butyl 3-(4-carbamoyl-3-(phenylamino)-1H-pyrazol-1-yl)-4-cyanocyclohexanecarboxylate]
pIC50 [1]: 8.15
pIC50 [2]: 7.30

CN[C@H]1CC[C@H](C#N)[C@@H](n2cc(C(N)=O)c(Nc3ccc(F)cc3)n2)C1 (mixture of isomers) [Example 6-5, 1-{[(1S,2S,5S) and (1R,2R,5R)-2-cyano-5-(methylamino)cyclohexyl]-3-[(4-fluorophenyl)amino]-1H-pyrazole-4-carboxamide]
pIC50 [1]: 6.39
pIC50 [2]: < 5.82

CN[C@@H]1CC[C@H](C#N)[C@@H](n2cc(C(N)=O)c(Nc3ccc(F)cc3)n2)C1 (mixture of isomers) [Example 6-3, 1-{[(1S,2S,5R) and (1R,2R,5S)]-2-cyano-5-(methylamino)cyclohexyl}-3-[(4-fluorophenyl)amino]-1H-pyrazole-4-carboxamide]
pIC50 [1]: 6.60
pIC50 [2]: < 5.82

C[C@]1(C#N)CCCC[C@@H]1n1cc(C(N)=O)c(Nc2ccc(F)cc2)n1 (mixture of isomers) [Example 19-2, 1-((1S,2S and 1R,2R)-2-cyano-2-methylcyclohexyl)-3-((4-fluorophenyl)amino)-1H-pyrazole-4-carboxamide]
pIC50 [1]: 8.40
pIC50 [2]: 7.96

CC[N+]1([C@H]2CC[C@H](n3cc(C(N)=O)c(Nc4ccc(Cl)cc4)n3)[C@@H](C#N)C2)CCC1 [Example 31-3, 1-[(1S,3S,4S)-4-{4-carbamoyl-3-[(4-chlorophenyl)amino]-1H-pyrazol-1-yl}-3-cyanocyclohexyl]-1-ethylazetidinium]
pIC50 [1]: 9.00
pIC50 [2]: 7.55

CS(=O)(=O)c1ccc(Nc2nn([C@H]3CCC[C@@H]3C#N)cc2C(N)=O)cc1 (mixture of isomers) [Example 1-4, 1-{[(1S,2S) and (1R,2R)-2-cyanocyclopentyl]}-3-{4-(methylsulfonyl)phenyl]amino}-1H-pyrazole-4-carboxamide]
pIC50 [1]: 9.30
pIC50 [2]: 7.96

CN(C)[C@H]1CC[C@H](C#N)[C@@H](n2cc(C(N)=O)c(Nc3ccc(F)cc3)n2)C1 (mixture of isomers) [Example 6-1, 1-[(1S,2S,5S and 1R,2R,5R)-2-cyano-5-(dimethylamino)cyclohexyl]-3-[(4-fluorophenyl)amino]-1H-pyrazole-4-carboxamide]
pIC50 [1]: 6.39
pIC50 [2]: < 5.82

N#C[C@@H]1CCC2(C[C@@H]1n1cc(C(N)=O)c(Nc3ccccc3)n1)OCCO2 (single isomer, unassigned) [Example 45-2, 1-[(7S,8R or 7R,8S)-8-Cyano-1,4-dioxaspiro[4.5]dec-7-yl]-3-(phenylamino)-1H-pyrazole-4-carboxamide]
pIC50 [1]: 9.07
pIC50 [2]: 8.40

CS(=O)(=O)N[C@@H]1CC[C@H](n2cc(C(N)=O)c(Nc3ccc(F)cc3)n2)[C@@H](C#N)C1 (mixture of isomers) [Example 38-2, 1-{(1S,2S,4R and 1R,2R,4S)-2-cyano-4-[(methylsulfonyl)amino]cyclohexyl}-3-[(4-fluorophenyl)amino]-1H-pyrazole-4-carboxamide]
pIC50 [1]: 9.05
pIC50 [2]: 7.92

Source: patent US8962608B2, “Cycloalkylnitrile pyrazole carboxamides as janus kinase inhibitors” (Merck Sharp & Dohme Corp., priority 2011, dated 2015)
